Laboratory results from article PMC12067442 (Journal of Medicinal Chemistry, 2025).
Where “and” joins values, the source holds several entries; their conditions need not be identical. Equal entries are not always repeated.

Assays:
[1] = biological target: T1, norepinephrine transporter (NET, SLC6A2) (Homo sapiens, UniProt P23975); test: radioligand displacement assay on NET (Eurofins Cerep SA); assay type: binding; details: for inhibition at 10 µM: read-out: % Inhibition @ 10 µM on NET; for inhibition at 0.01 µM: read-out: % Inhibition @ 10 nM on NET; for inhibition at 0.1 µM: read-out: % Inhibition @ 100 nM on NET
T1 construct: purchased Eurofins Cerep SA

[2] = biological target: T2, dopamine transporter (DAT, SLC6A3) (Homo sapiens, UniProt Q01959); test: radioligand displacement assay on DAT (Eurofins Cerep SA); assay type: binding; details: for inhibition at 10 µM: read-out: % Inhibition @ 10 µM on DAT; for inhibition at 0.1 µM: read-out: % Inhibition @ 100 nM on DAT
T2 construct: purchased Eurofins Cerep SA

[3] = biological target: T3, serotonine (5-HT) transporter (SERT, SLC6A4) (Homo sapiens, UniProt P31645); test: radioligand displacement assay on SERT (Eurofins Cerep SA); assay type: binding; details: for inhibition at 10 µM: read-out: % Inhibition @ 10 µM on SERT; for inhibition at 0.1 µM: read-out: % Inhibition @ 100 nM on SERT
T3 construct: purchased Eurofins Cerep SA

[4] = biological target: T4, σ-1R (Homo sapiens, UniProt Q99720); test: radioligand displacement assay on σ-1R (Eurofins Cerep SA); assay type: binding; details: estimated from duplicate dilution series; read-out: IC50 (nM) sigma-1R
T4 construct: purchased Eurofins Cerep SA

[5] = biological target: T5, ACHe (Homo sapiens, UniProt P22303); test: in vitro polypharmacology panel: ACHe; assay type: binding
T5 construct: purchased Eurofins Cerep SA

[6] = biological target: T6, Cannabinoid (Homo sapiens, UniProt P21554); test: in vitro polypharmacology panel: Cannabinoid; assay type: binding
T6 construct: purchased Eurofins Cerep SA

[7] = biological target: T7, Cannabinoid 2 (Homo sapiens, UniProt P34972); test: in vitro polypharmacology panel: Cannabinoid 2; assay type: binding
T7 construct: purchased Eurofins Cerep SA

[8] = biological target: T8, HEK-Gly-RA1 (Homo sapiens, UniProt P23415); test: in vitro polypharmacology panel: HEK-Gly-RA1; assay type: binding
T8 construct: host or cells: HEK

[9] = biological target: T9, Dopamine D1 (Homo sapiens, UniProt P21728); test: in vitro polypharmacology panel: Dopamine D1; assay type: binding
T9 construct: purchased Eurofins Cerep SA

[10] = biological target: T10, Dopamine D2s (Homo sapiens, UniProt P14416); test: in vitro polypharmacology panel: Dopamine D2s; assay type: binding
T10 construct: purchased Eurofins Cerep SA

[11] = biological target: T11, Dopamine D2L (Homo sapiens, UniProt P14416); test: in vitro polypharmacology panel: Dopamine D2L; assay type: binding
T11 construct: purchased Eurofins Cerep SA

[12] = biological target: T12, Dopamine D3 (Homo sapiens, UniProt P35462); test: in vitro polypharmacology panel: Dopamine D3; assay type: binding
T12 construct: purchased Eurofins Cerep SA

[13] = biological target: T13, hERG (Homo sapiens, UniProt Q12809); test: in vitro polypharmacology panel: hERG; assay type: binding
T13 construct: purchased Eurofins Cerep SA

[14] = biological target: T14, Histaminic H1 (Homo sapiens, UniProt P35367); test: in vitro polypharmacology panel: Histaminic H1; assay type: binding
T14 construct: purchased Eurofins Cerep SA

[15] = biological target: T15, Histaminic H2 (Homo sapiens, UniProt P25021); test: in vitro polypharmacology panel: Histaminic H2; assay type: binding
T15 construct: purchased Eurofins Cerep SA

[16] = biological target: T16, Histaminic H3 (Homo sapiens, UniProt Q9Y5N1); test: in vitro polypharmacology panel: Histaminic H3; assay type: binding
T16 construct: purchased Eurofins Cerep SA

[17] = biological target: T17, Muscarinic M1 (Homo sapiens, UniProt P11229); test: in vitro polypharmacology panel: Muscarinic M1; assay type: binding
T17 construct: purchased Eurofins Cerep SA

[18] = biological target: T18, Muscarinic M2 (Homo sapiens, UniProt P08172); test: in vitro polypharmacology panel: Muscarinic M2; assay type: binding
T18 construct: purchased Eurofins Cerep SA

[19] = biological target: T19, Serotonin 5-HT 1A (Homo sapiens, UniProt P08908); test: in vitro polypharmacology panel: Serotonin 5-HT 1A; assay type: binding
T19 construct: purchased Eurofins Cerep SA

[20] = biological target: T20, Serotonin 5-HT 1B (Homo sapiens, UniProt P28222); test: in vitro polypharmacology panel: Serotonin 5-HT 1B; assay type: binding
T20 construct: purchased Eurofins Cerep SA

[21] = biological target: T21, Serotonin 5-HT 2A (Homo sapiens, UniProt P28223); test: in vitro polypharmacology panel: Serotonin 5-HT 2A; assay type: binding
T21 construct: Eurofins Cerep SA (France), contract assay

[22] = biological target: T22, Serotonin 5-HT 2B (Homo sapiens, UniProt P41595); test: in vitro polypharmacology panel: Serotonin 5-HT 2B; assay type: binding
T22 construct: Eurofins Cerep SA (France), contract assay

[23] = biological target: T23, Serotonin 5-HT 3 (Homo sapiens, UniProt P46098); test: in vitro polypharmacology panel: Serotonin 5-HT 3; assay type: binding
T23 construct: Eurofins Cerep SA (France), contract assay

[24] = system: mice; test: observation of mice after acute i.p. administration; assay type: in vivo, C57Bl6/J mice; details: 1.0 or 10 mg/kg i.p., male mice
From the text: Fresh bedding and environmental enrichment were provided weekly.

[25] = in vivo; details: both, C57BL/6JRJ, mouse, 5 mg/kg
[26] = system: dopamine (DA) uptake in PC12 cells; test: cells; details: Rattus norvegicus, PC-12, 2 h, read-out: IC50 (nM) - DA Uptake Inhibition
From the text: The system was operated in positive mode. […] MS peaks were quantified using a calibration curve.

T1 sequence (P23975 whole entry): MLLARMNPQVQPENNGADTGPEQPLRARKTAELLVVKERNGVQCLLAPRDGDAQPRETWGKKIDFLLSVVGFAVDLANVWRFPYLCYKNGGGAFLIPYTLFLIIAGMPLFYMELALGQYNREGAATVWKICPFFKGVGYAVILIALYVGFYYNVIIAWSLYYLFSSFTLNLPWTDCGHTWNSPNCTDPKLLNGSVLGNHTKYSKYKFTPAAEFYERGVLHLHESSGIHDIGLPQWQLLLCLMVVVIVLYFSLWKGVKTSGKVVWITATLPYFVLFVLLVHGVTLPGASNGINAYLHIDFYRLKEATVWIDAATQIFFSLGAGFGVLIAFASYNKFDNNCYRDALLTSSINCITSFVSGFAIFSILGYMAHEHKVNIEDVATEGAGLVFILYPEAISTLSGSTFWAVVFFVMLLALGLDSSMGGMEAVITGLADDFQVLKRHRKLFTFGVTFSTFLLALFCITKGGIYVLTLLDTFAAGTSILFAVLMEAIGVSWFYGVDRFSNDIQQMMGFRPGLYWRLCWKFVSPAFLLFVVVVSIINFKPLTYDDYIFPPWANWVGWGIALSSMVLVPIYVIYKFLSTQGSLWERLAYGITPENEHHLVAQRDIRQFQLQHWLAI
T3 sequence (P31645 whole entry): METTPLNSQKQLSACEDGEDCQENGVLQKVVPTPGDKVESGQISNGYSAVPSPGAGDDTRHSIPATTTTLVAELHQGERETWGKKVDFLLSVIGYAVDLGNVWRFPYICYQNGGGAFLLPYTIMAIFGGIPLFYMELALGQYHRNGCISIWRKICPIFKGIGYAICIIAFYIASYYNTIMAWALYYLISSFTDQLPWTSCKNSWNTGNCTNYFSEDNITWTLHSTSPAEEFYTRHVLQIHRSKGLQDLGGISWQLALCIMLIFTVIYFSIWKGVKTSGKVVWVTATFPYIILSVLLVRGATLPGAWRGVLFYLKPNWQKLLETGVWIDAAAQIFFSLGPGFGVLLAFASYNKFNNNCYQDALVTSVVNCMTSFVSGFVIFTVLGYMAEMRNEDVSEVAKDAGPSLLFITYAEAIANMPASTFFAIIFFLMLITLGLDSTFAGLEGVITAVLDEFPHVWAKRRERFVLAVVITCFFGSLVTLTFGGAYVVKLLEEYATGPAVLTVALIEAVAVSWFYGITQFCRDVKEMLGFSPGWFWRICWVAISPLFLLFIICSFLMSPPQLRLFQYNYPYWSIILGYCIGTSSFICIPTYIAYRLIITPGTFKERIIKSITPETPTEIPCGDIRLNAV
T2 sequence (Q01959 whole entry): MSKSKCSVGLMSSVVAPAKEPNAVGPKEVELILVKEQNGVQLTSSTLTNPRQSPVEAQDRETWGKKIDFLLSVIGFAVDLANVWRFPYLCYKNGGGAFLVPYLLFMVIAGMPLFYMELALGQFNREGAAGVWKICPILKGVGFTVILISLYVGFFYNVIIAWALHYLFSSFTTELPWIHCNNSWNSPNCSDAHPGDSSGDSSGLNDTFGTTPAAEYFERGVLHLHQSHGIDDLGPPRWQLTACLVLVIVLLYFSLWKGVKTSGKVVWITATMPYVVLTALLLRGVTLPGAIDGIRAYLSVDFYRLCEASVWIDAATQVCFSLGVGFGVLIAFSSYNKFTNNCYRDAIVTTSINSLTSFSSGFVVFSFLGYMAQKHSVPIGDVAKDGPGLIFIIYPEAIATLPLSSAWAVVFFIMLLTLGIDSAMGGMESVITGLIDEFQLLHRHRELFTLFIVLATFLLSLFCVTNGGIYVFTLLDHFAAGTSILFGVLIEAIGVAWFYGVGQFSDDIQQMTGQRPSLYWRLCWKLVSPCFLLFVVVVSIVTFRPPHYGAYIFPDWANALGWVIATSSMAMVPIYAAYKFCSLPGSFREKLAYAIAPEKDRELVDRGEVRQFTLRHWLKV
T4 sequence (Q99720 whole entry, species assumed): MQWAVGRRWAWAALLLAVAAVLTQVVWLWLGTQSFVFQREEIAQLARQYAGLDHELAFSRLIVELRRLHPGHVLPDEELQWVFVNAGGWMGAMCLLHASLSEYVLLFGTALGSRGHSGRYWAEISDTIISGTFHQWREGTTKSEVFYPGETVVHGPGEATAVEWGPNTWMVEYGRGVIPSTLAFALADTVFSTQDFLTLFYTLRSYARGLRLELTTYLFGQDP
T5 sequence (P22303 32-614): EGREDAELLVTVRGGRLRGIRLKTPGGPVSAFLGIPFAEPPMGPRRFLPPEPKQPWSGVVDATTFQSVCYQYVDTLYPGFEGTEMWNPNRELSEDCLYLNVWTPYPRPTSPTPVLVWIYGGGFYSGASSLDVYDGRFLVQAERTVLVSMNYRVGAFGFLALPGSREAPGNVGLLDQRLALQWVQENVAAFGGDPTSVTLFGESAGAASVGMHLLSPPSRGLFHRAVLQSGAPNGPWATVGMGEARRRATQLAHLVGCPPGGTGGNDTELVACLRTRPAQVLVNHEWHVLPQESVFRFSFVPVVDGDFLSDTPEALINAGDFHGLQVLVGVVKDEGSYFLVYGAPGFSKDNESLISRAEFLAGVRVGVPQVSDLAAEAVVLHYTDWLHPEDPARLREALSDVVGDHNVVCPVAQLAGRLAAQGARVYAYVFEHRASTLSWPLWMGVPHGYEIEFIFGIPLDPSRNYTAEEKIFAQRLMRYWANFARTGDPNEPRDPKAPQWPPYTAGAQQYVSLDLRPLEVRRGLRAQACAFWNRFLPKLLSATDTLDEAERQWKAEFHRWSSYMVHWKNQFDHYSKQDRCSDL
T23 sequence (P46098 24-478): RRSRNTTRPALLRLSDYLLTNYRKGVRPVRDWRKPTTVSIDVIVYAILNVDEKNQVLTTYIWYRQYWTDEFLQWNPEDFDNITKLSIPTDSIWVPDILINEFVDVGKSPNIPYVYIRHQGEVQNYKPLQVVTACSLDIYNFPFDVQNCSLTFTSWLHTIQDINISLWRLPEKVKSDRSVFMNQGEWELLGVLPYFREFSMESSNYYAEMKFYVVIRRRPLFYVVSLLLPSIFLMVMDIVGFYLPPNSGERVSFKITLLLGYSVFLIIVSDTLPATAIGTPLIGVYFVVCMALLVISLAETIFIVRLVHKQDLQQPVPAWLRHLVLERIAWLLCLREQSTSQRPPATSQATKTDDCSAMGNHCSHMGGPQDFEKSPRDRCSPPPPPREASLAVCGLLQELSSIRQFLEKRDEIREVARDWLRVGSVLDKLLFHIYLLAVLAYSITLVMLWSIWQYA
T18 sequence (P08172 whole entry): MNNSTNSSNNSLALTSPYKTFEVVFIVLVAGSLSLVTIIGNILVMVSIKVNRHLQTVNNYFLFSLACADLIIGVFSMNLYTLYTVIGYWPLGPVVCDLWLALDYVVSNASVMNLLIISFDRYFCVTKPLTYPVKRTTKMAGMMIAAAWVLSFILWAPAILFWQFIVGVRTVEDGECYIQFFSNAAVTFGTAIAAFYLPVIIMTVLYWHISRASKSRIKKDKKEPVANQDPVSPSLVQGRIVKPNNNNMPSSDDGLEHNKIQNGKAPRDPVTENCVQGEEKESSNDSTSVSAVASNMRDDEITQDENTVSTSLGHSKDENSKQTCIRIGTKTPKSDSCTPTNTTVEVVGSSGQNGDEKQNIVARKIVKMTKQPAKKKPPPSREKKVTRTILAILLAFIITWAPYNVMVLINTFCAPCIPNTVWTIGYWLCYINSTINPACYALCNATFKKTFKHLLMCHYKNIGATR
T8 sequence (P23415 29-457): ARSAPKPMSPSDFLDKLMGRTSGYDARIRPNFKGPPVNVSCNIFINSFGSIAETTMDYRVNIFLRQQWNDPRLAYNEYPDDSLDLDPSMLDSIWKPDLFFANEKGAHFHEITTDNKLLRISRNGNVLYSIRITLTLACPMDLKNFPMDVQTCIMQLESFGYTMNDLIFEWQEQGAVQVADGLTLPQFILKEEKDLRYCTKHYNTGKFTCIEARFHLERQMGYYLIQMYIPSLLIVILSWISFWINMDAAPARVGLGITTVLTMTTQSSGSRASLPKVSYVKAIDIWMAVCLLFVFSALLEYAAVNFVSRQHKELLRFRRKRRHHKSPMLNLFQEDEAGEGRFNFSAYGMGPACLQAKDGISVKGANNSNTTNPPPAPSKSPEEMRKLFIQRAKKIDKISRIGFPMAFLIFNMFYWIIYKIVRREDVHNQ
T11 sequence (P14416 whole entry): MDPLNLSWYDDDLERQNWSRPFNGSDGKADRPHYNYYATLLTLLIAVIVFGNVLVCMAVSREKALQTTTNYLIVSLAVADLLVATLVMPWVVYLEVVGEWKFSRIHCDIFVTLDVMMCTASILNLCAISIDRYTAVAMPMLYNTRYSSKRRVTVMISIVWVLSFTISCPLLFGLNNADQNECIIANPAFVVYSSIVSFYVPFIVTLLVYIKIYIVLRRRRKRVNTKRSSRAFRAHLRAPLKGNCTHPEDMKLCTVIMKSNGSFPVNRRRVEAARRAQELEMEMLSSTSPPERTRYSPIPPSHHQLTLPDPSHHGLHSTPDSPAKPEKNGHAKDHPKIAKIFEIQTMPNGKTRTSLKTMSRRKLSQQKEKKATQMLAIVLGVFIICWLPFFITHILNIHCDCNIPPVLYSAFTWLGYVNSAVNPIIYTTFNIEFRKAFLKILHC
T12 sequence (P35462 whole entry): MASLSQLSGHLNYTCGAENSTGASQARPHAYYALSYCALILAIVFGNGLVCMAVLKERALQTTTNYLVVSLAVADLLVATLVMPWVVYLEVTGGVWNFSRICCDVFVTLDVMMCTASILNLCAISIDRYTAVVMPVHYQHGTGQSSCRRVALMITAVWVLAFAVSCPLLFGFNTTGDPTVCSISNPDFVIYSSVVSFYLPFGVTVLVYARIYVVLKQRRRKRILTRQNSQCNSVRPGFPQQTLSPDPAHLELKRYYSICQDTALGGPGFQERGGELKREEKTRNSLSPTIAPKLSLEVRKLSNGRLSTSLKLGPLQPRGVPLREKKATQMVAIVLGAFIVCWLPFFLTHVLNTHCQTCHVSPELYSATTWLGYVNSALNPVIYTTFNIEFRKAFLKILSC

C1CC[C@H]2NCC[C@H]2NC1 (relative stereo) [2a, Decahydropyrrolo[3,2-b]azepine]
inhibition at 10 µM [1]: 1.7% | inhibition at 10 µM [2]: 6.4% | inhibition at 10 µM [3]: 7.6%

C1CC[C@@H]2NCC[C@H]2NC1 (relative stereo) [2b, Decahydropyrrolo[3,2-b]azepine]
inhibition at 10 µM [1]: 3% | inhibition at 10 µM [2]: 13.6% | inhibition at 10 µM [3]: -1.9%

C1CC[C@@H]2NCCC[C@H]2NC1 (relative stereo) [3b]
inhibition at 10 µM [1]: 8.8% | inhibition at 10 µM [2]: -5.2% | inhibition at 10 µM [3]: 11.8%

c1ccc(CN2CC[C@H]3NCCCC[C@H]32)cc1 (relative stereo) [17a, 1-Benzyldecahydropyrrolo[3,2-b]azepine]
inhibition at 10 µM [1]: 21.7% | inhibition at 10 µM [2]: 78.3% | inhibition at 10 µM [3]: 21.4%

c1ccc(CN2CC[C@H]3NCCCC[C@@H]32)cc1 (relative stereo) [17b, 1-Benzyldecahydropyrrolo[3,2-b]azepine]
inhibition at 10 µM [1]: 10.8% | inhibition at 10 µM [2]: 89% | inhibition at 10 µM [3]: 13.7%

c1ccc(CN2CCC[C@H]3NCCCC[C@H]32)cc1 (relative stereo) [27a, 1-Benzyldecahydro-1H-pyrido[3,2-b]azepine]
inhibition at 10 µM [1]: 13.9% | inhibition at 10 µM [2]: 85.5% | inhibition at 10 µM [3]: 87.7%

c1ccc(CN2CCC[C@H]3NCCCC[C@@H]32)cc1 (relative stereo) [27b, 1-Benzyldecahydro-1H-pyrido[3,2-b]azepine]
inhibition at 10 µM [1]: -5.1% | inhibition at 10 µM [2]: 19.4% | inhibition at 10 µM [3]: 6.9%

c1ccc(CN2CCCC[C@@H]3NCC[C@H]32)cc1 [1b, 4-Benzyldecahydropyrrolo[3,2-b]azepine]
inhibition at 10 µM [2]: 81.8% | inhibition at 10 µM [3]: 68.6%

C1CCC2NCCCCC2NC1 (stereo not shown) [4b, Dodecahydroazepino[3,2-b]azepine]
inhibition at 10 µM [1]: -7.1% | inhibition at 10 µM [2]: -0.5% | inhibition at 10 µM [3]: -1%

c1ccc(CN2CCCC[C@H]3NCCC[C@H]32)cc1 [40a, 5-Benzyldecahydro-1H-pyrido[3,2-b]azepine]
inhibition at 10 µM [1]: 88.7% | inhibition at 10 µM [2]: 94.4% | inhibition at 10 µM [3]: 91%

c1ccc(CN2CCCC[C@@H]3NCCC[C@H]32)cc1 [40b, 5-Benzyldecahydro-1H-pyrido[3,2-b]azepine]
inhibition at 10 µM [1]: 60% | inhibition at 10 µM [2]: 41% | inhibition at 10 µM [3]: 71%

c1ccc(CN2CCCC[C@@H]3NCCCC[C@H]32)cc1 [44b, 6-Benzyldodecahydroazepino[3,2-b]azepine]
inhibition at 10 µM [1]: 31.5% | inhibition at 10 µM [2]: 74.9% | inhibition at 10 µM [3]: 59.4%

c1ccc(CN2CCCC[C@H]3NCC[C@H]32)cc1 [(R,R)-1a, (3aR,8aR)-4-Benzyldecahydropyrrolo[3,2-b]azepine]
IC50 [2]: 230 ± 12 nM | inhibition at 0.1 µM [2]: 29.8% | inhibition at 10 µM [2]: 97.2% | IC50 [3]: 250 ± 32 nM | inhibition at 0.1 µM [3]: 26.3% | inhibition at 10 µM [3]: 95.9% | IC50 [4]: ~110 nM and 110 nM | ACHe (5 µM) [5]: 3.8 | Cannabinoid (5 µM) [6]: -13.4 | Cannabinoid 2 (5 µM) [7]: 11.9 | HEK-Gly-RA1 (5 µM) [8]: 4 | Dopamine D1 (5 µM) [9]: 3.5 | Dopamine D2s (5 µM) [10]: 11.7 | Dopamine D2L (5 µM) [11]: -0.3 | Dopamine D3 (5 µM) [12]: 6.1 | hERG (5 µM) [13]: 12.2 | Histaminic H1 (5 µM) [14]: -4.3 | Histaminic H2 [15]: -2 | Histaminic H3 (5 µM) [16]: 8.6 | Muscarinic M1 (5 µM) [17]: 78.7 | Muscarinic M2 (5 µM) [18]: 28.5 | Serotonin 5-HT 1A (5 µM) [19]: 18.9 | Serotonin 5-HT 1B (5 µM) [20]: -19.8 | Serotonin 5-HT 2A (5 µM) [21]: -0.9 | Serotonin 5-HT 2B (5 µM) [22]: 29.7 | Serotonin 5-HT 3 (5 µM) [23]: 5.2 | phenotype upon acute treatment ([24]; already after 40 min): pronounced sedative or lethargic phenotype | signs of acute toxicity (piloerection, hunched posture, convulsions, gastrointestinal distress) [24]: no signs of acute toxicity | AUC ([25]; iv): 799 ng·h/mL | AUC ([25]; po): 36.6 ng·h/mL | Tmax ([25]; po): 15 min

Clc1ccc(CN2CCCC[C@H]3NCC[C@H]32)cc1 [(R,R)-58, (3aR,8aR)-4-(4-Chlorobenzyl)decahydropyrrolo[3,2-b]azepine]
inhibition at 0.01 µM [1]: -15.2% | inhibition at 0.1 µM [1]: 6.4% | inhibition at 0.1 µM [2]: 12% | inhibition at 0.1 µM [3]: 78.2%

Clc1cccc(CN2CCCC[C@H]3NCC[C@H]32)c1 [(R,R)-59, (3aR,8aR)-4-(3-chlorobenzyl)decahydropyrrolo[3,2-b]azepine]
inhibition at 0.01 µM [1]: 55.9% | inhibition at 0.1 µM [1]: 97.1% | inhibition at 0.1 µM [2]: 74.9% | inhibition at 0.1 µM [3]: 98%

Clc1ccccc1CN1CCCC[C@H]2NCC[C@H]21 [(R,R)-60, (3aR,8aR)-4-(2-Chlorobenzyl)decahydropyrrolo[3,2-b]azepine]
inhibition at 0.01 µM [1]: 24% | inhibition at 0.1 µM [1]: 83.4% | inhibition at 0.1 µM [2]: 37.5% | inhibition at 0.1 µM [3]: 69.1%

Brc1cccc(CN2CCCC[C@H]3NCC[C@H]32)c1 [(R,R)-61, (3aR,8aR)-4-(3-Bromobenzyl)decahydropyrrolo[3,2-b]azepine]
inhibition at 0.01 µM [1]: 56.7% | inhibition at 0.1 µM [1]: 91.4% | inhibition at 0.1 µM [2]: 58% | inhibition at 0.1 µM [3]: 96.9%

c1ccc(CN2CCCC[C@@H]3NCC[C@@H]32)cc1 [(S,S)-1a, (3aS,8aS)-4-Benzyldecahydropyrrolo[3,2-b]azepine]
inhibition at 10 µM [2]: 94.4% | inhibition at 10 µM [3]: 91%

Clc1ccc2c(c1)C(N1CCNCC1)=Nc1ccccc1O2 [Amox, amoxapine]
IC50 [26]: 11 ± 2.3 nM

COc1ccc(C(CN(C)C)C2(O)CCCCC2)cc1 (stereo not shown) [Venla, venlafaxine]
IC50 [26]: 1340 ± 128 nM

(3aR,8aR)-4-(2,3-Dichlorobenzyl)decahydropyrrolo[3,2-b]azepine [(R,R)-62]
% Inhibition @ 10 nM on NET [1]: 74.8% | % Inhibition @ 100 nM on NET [1]: 96.4% | % Inhibition @ 100 nM on DAT [2]: 15.4% | % Inhibition @ 100 nM on SERT [3]: 97.8%

(3aR,8aR)-4-(3,5-Dichlorobenzyl)decahydropyrrolo[3,2-b]azepine [(R,R)-63]
% Inhibition @ 10 nM on NET [1]: 63.4% | % Inhibition @ 100 nM on NET [1]: 93.7% | % Inhibition @ 100 nM on DAT [2]: 89% | % Inhibition @ 100 nM on SERT [3]: 99.7%
